The record followed here is patent publication US20220235073A1, “ARTEMISININ-DERIVATIVE N-HETEROCYCLIC CARBENE GOLD(I) HYBRID COMPLEXES” (CENTRE NATIONAL DE LA RECHERCHE SCIENTIFIQUE, priority 2019, published 2022).

Molecules are shown by their SMILES. Like-named read-outs stand apart in the source and are kept apart here.

The subject of test [1] is NIH3T3 murine fibroblast cells. The experiment in a line: Cell viability MTT assay, NIH3T3. The format is cell-based. Conditions: for GI50: 72 h, MTT assay; for Selectivity index NIH3T3: SI = GI50 (non-cancer cell line NIH3T3)/GI50 (cancer cell line PC-3); for IC50: Table 3, non tumoral cell model, read-out: IC50 NIH3T3 (fibroblasts). The protocol: (§1) HepG-2 human liver cancer cells were cultured in EMEM containing 10% of FBS, 1% of nonessential amino acids, 1 mM of Na-pyruvate, 1% of PenStrep antibiotics and 600 μg/mL of Geneticin. A549 human lung carcinoma cells, T24 human bladder carcinoma cells, MCF-7 human breast adenocarcinoma cells, U-2OS human osteosarcoma and NIH3T3 murine fibroblast cells were cultured in DMEM medium containing 10% fetal bovine serum and 1% antibiotics at 37° C. in 5% CO2 humidified incubators. MC3T3 mouse osteoblast cells were cultured in MEM medium containing 10% fetal bovine serum and 1% antibiotics at 37° C. in 5% CO2 humidified incubators. RWPE-1 human prostate normal cells were cultured in K-SFM medium containing 0.05 mg/ml bovine pituitary extract (BPE) and 5 ng/ml epidermal growth factor (EGF) at 37° C. in 5% CO2 humidified incubators. The MTT reagent (3-(4,5-dimethylthiazol-2-yl)-2,5-diphenyltetrazolium bromide) was used to determine cell death as originally described by Mosmaneland modified by Cuvillier et al.^[6] Briefly, cells were seeded 5,000 to 10,000 cells/well in 24-well plates depending on the cell type and allowed to attach overnight. All of the complexes were dissolved in DMSO. The concentration of the complexes was calculated according to the elemental composition of the complexes determined by the elemental analyses. Media in the presence of the tested complexes were added and serially diluted to various concentrations (from 5 μM to 0.01 μM). Next to these concentrations, for DHA 50, 20 and 10 μM and for the cationic bisNHC gold(I) complex 3 0.001 μM have been used. […] After 72 h of treatment, cells were incubated at 37° C. and 5% CO2 with 25 μL MTT solution (5 mg/mL; Sigma-Aldrich) in 24-well plates for approximately 3 to 4 h. After solubilization with 500 μL of lysis buffer (DMSO), formazan was quantified by spectrophotometry with a microplate reader at 570 nm absorbance. […] All the results were calculated from data obtained in three independent experiments.

For test [2], the system named is RWPE-1 human prostate normal cells. The experiment in a line: Cell viability MTT assay, RWPE-1. Conditions: for GI50: 72 h, MTT assay; for Selectivity index RWPE-1: SI = GI50 (RWPE-1)/GI50 (PC-3); for IC50: Table 3, non tumoral cell model, read-out: IC50 RWPE1 (prostatic epithelial cells); for Specificity Prostate: RWPE1 (normal immortalized)/PC-3 (tumoral): ratio of IC50, tumoral versus non tumoral cells of same tissue. The format is cell-based. The procedure:
as §1

The test system of test [3] is A549 human lung carcinoma cells. The experiment in a line: Cell viability MTT assay, A549. Type of test: cell-based. The conditions noted are these: for GI50: 72 h, MTT assay; for IC50: Table 3, tumor cell model. The procedure: (§2) PC-3 human prostate cancer cells, and LAMA chronic myeloid leukemia were cultured in RPMI 1640 containing 10% fetal bovine serum and 1% antibiotics (100 U/mL penicillin and 100 μg/mL streotimycin) at 37° C. in 5% CO2 humidified incubators. HL60 […] were cultured in RPMI 1640 containing 15% fetal bovine serum and 1% antibiotics (100 U/mL penicillin and 100 μg/mL streotimycin) at 37° C. in 5% CO2 humidified incubators. HepG-2 human liver cancer cells were cultured in EMEM containing 10% of FBS, 1% of nonessential amino acids, 1 mM of Na-pyruvate, 1% of PenStrep antibiotics and 600 μg/mL of Geneticin. A549 human lung carcinoma cells, T24 human bladder carcinoma cells, MCF-7 human breast adenocarcinoma cells, U-2OS human osteosarcoma and NIH3T3 murine fibroblast cells were cultured in DMEM medium containing 10% fetal bovine serum and 1% antibiotics at 37° C. in 5% CO2 humidified incubators. MC3T3 mouse osteoblast cells were cultured in MEM medium containing 10% fetal bovine serum and 1% antibiotics at 37° C. in 5% CO2 humidified incubators. RWPE-1 human prostate normal cells were cultured in K-SFM medium containing 0.05 mg/ml bovine pituitary extract (BPE) and 5 ng/ml epidermal growth factor (EGF) at 37° C. in 5% CO2 humidified incubators. The MTT reagent (3-(4,5-dimethylthiazol-2-yl)-2,5-diphenyltetrazolium bromide) was used to determine cell death as originally described by Mosmaneland modified by Cuvillier et al.^[6] Briefly, cells were seeded 5,000 to 10,000 cells/well in 24-well plates depending on the cell type and allowed to attach overnight. All of the complexes were dissolved in DMSO. The concentration of the complexes was calculated according to the elemental composition of the complexes determined by the elemental analyses. Media in the presence of the tested complexes were added and serially diluted to various concentrations (from 5 μM to 0.01 μM). Next to these concentrations, for DHA 50, 20 and 10 μM and for the cationic bisNHC gold(I) complex 3 0.001 μM have been used. […] After 72 h of treatment, cells were incubated at 37° C. and 5% CO2 with 25 μL MTT solution (5 mg/mL; Sigma-Aldrich) in 24-well plates for approximately 3 to 4 h. After solubilization with 500 μL of lysis buffer (DMSO), formazan was quantified by spectrophotometry with a microplate reader at 570 nm absorbance. The GI50 values corresponding to the concentration that caused 50% inhibition of cell proliferation were calculated from dose-response curves obtained by nonlinear regression analysis (Prism 8, Graphpad Software). All the results were calculated from data obtained in three independent experiments.
Background: Tetrazolium dyes change colour on reduction, which living cells bring about.

In test [4] the test system is MCF-7 human breast adenocarcinoma cells. The experiment in a line: Cell viability MTT assay, MCF-7. The format is cell-based. The conditions noted are these: for GI50: 72 h, MTT assay; for IC50: Table 3, tumor cell model. The procedure:
as §2

The next test concerns U-2OS human osteosarcoma. The experiment in a line: Cell viability MTT assay, U-2OS. Type of test: cell-based. The conditions noted are these: for GI50: 72 h, MTT assay; for IC50: Table 3, tumor cell model, read-out: IC50 U2OS (bone tumor). The protocol: as §2
Test [5] deals with HepG-2 human liver cancer cells. The experiment in a line: Cell viability MTT assay, HepG-2. The format is cell-based. The protocol: (§3) PC-3 human prostate cancer cells, and LAMA chronic myeloid leukemia were cultured in RPMI 1640 containing 10% fetal bovine serum and 1% antibiotics (100 U/mL penicillin and 100 μg/mL streotimycin) at 37° C. in 5% CO2 humidified incubators. HL60 […] were cultured in RPMI 1640 containing 15% fetal bovine serum and 1% antibiotics (100 U/mL penicillin and 100 μg/mL streotimycin) at 37° C. in 5% CO2 humidified incubators. HepG-2 human liver cancer cells were cultured in EMEM containing 10% of FBS, 1% of nonessential amino acids, 1 mM of Na-pyruvate, 1% of PenStrep antibiotics and 600 μg/mL of Geneticin. A549 human lung carcinoma cells, T24 human bladder carcinoma cells, MCF-7 human breast adenocarcinoma cells, U-2OS human osteosarcoma and NIH3T3 murine fibroblast cells were cultured in DMEM medium containing 10% fetal bovine serum and 1% antibiotics at 37° C. in 5% CO2 humidified incubators. MC3T3 mouse osteoblast cells were cultured in MEM medium containing 10% fetal bovine serum and 1% antibiotics at 37° C. in 5% CO2 humidified incubators. RWPE-1 human prostate normal cells were cultured in K-SFM medium containing 0.05 mg/ml bovine pituitary extract (BPE) and 5 ng/ml epidermal growth factor (EGF) at 37° C. in 5% CO2 humidified incubators. The MTT reagent (3-(4,5-dimethylthiazol-2-yl)-2,5-diphenyltetrazolium bromide) was used to determine cell death as originally described by Mosmaneland modified by Cuvillier et al.^[6] Briefly, cells were seeded 5,000 to 10,000 cells/well in 24-well plates depending on the cell type and allowed to attach overnight. All of the complexes were dissolved in DMSO. The concentration of the complexes was calculated according to the elemental composition of the complexes determined by the elemental analyses. […] After solubilization with 500 μL of lysis buffer (DMSO), formazan was quantified by spectrophotometry with a microplate reader at 570 nm absorbance. […] All the results were calculated from data obtained in three independent experiments.

Test [6] has as its system HL60 (acute myeloid leukemia). The experiment in a line: Cell viability MTT assay, HL60. Type of test: cell-based. Conditions: for GI50: 72 h, MTT assay; for IC50: Table 3, tumor cell model. The procedure:
as §2

The subject of test [7] is Non tumoral cell models (MC3-T3, NIH3T3, RWPE1). The experiment in a line: MTT assay, mean over non tumoral cell models. The format is cell-based. The conditions noted are these: mean of MC3-T3, NIH3T3, RWPE1. The protocol: as §3
The subject of a further test is Tumor cell models. The experiment in a line: MTT assay, panel of tumor cell models. The format is cell-based, human. Conditions: mean of PC-3, A549, U2OS, T24, MCF-7, LAMA, HL60. The procedure: as §3
Test [8] deals with NF-κB transcription factor induced by TNFalpha. The experiment in a line: NF-kB transcriptional activity, NF-kB Reporter (Luc)-A549 stable cell line. The format is cell-based, human. Conditions: NF-kB Reporter A549 cells, 1 ng/ml TNFα, 7 hours, read-out: IC50, inhibition of NF-κB transcription factor induced by TNFalpha. The procedure:
The NF-kB Reporter (Luc)—A549 Stable Cell Line was used to quantify the inhibitory effects of the indicated doses of the molecules of the invention on transcriptional activity of NF-kB activated by 1 ng/ml TNFα (7 hours of treatment).
Luminescence was read using a luminometer and readings were normalized to wells that only contain media to obtain the Relative Luminescence Units (RLUs).
9. NF-kB Transcriptional Activity

For orientation: GI50 means the concentration that inhibits growth by half. By IC50 is commonly meant the concentration at which inhibition is half-maximal. As to `CC(=O)OC[C@H]1O[C@@H]([S-])[C@H](OC(C)=O)[C@@H](OC(C)=O)[C@@H]1OC(C)=O.CCP(CC)CC.[Au+]` [Auranofin], the GI50 stood at 1100 nM in [1]; 0.084 µM in [2]; 4.41 µM in [3]; 1.39 µM in test [4]; 470 nM in the test with U-2OS human osteosarcoma (read-out: GI50 U2OS); 3.62 µM in [5] (72 h). The GI50 in test [6] was determined as 0.95 µM. The “Selectivity index NIH3T3” value in [1] is on record as 1.0. Further, the IC50 amounted to 1100 nM in [1]; 0.084 µM in test [2]; 4.41 µM in [3]; 1.39 µM in [4]; 474 nM in the test on U-2OS human osteosarcoma; 951 nM in test [6]. Further, the IC50 in test [7] was 0.86 µM; in the test with Tumor cell models, 1.46 µM; in [8], 2.96 µM. The “Selectivity index RWPE-1” value in test [2] is given as 0.1. In test [2], the “Specificity Prostate: RWPE1 (normal immortalized)/PC-3 (tumoral)” value amounted to 0.1.

As to `C[C@H]1[C@@H](O)O[C@@H]2O[C@]3(C)CC[C@H]4[C@H](C)CC[C@@H]1[C@@]24OO3` [DHA, dihydroartemisinin], the GI50 in [1] (Mus musculus, NIH3T3) was determined as 3860 nM; in test [2] (Homo sapiens, RWPE-1), 9.68 µM; in test [3] (Homo sapiens, A549) it was 11 µM; in [4] (Homo sapiens, MCF7) it was 9.67 µM; in the test with U-2OS human osteosarcoma (Homo sapiens, U2OS), 4100 nM; in test [5] (Homo sapiens, HepG2, 72 h), 12 µM. In [6] (Homo sapiens, HL-60), this compound registered a GI50 of 25 µM. Further, the IC50 in [1] (Mus musculus, NIH3T3) was 3860 nM; in test [2] (Homo sapiens, RWPE-1), 9.68 µM; in [3] (Homo sapiens, A549), 11 µM; in [4] (Homo sapiens, MCF7), 9.67 µM; in the test on U-2OS human osteosarcoma (Homo sapiens, U2OS), 4100 nM; in [6] (Homo sapiens, HL-60), 3250 nM. For the same compound, the IC50 in [7] amounted to 5.7 µM; in the test with Tumor cell models (Homo sapiens), 5.74 µM; in [8] (Homo sapiens), 8.91 µM. Further, the “Selectivity index NIH3T3” value in [1] is reported as 2.5. Besides, in test [2], the “Selectivity index RWPE-1” value stood at 6.2. Moreover, in test [2], the “Specificity Prostate: RWPE1 (normal immortalized)/PC-3 (tumoral)” value is 6.2.
